The NIST ThermoML archive (doi:10.1007/s10765-009-0602-6)

Assay: molar heat capacity at constant volume; xn = mol fraction of the nth substance listed
Settings: x1 = 0.2607

N [ammonia] + O
Settings	molar heat capacity at constant volume [J/K/mol]
508.07 K, Fluid (supercritical or subcritical phases), Mass density=671.23 kg/m3, isochoric heat capacity	68.25
508.07 K, Liquid, Isochoric heat capacity	68.25
508.26 K, Fluid (supercritical or subcritical phases), Mass density=671.23 kg/m3, isochoric heat capacity	68.14
508.36 K, Fluid (supercritical or subcritical phases), Mass density=671.23 kg/m3, isochoric heat capacity	68.37
508.45 K, Fluid (supercritical or subcritical phases), Mass density=671.23 kg/m3, isochoric heat capacity	67.54
508.54 K, Fluid (supercritical or subcritical phases), Mass density=671.23 kg/m3, isochoric heat capacity	67.61
508.64 K, Fluid (supercritical or subcritical phases), Mass density=671.23 kg/m3, isochoric heat capacity	67.18
509.01 K, Fluid (supercritical or subcritical phases), Mass density=671.23 kg/m3, isochoric heat capacity	68.48
509.11 K, Fluid (supercritical or subcritical phases), Mass density=671.23 kg/m3, isochoric heat capacity	67.7
509.3 K, Fluid (supercritical or subcritical phases), Mass density=671.23 kg/m3, isochoric heat capacity	67.89
509.39 K, Fluid (supercritical or subcritical phases), Mass density=671.23 kg/m3, isochoric heat capacity	66.74
509.67 K, Fluid (supercritical or subcritical phases), Mass density=671.23 kg/m3, isochoric heat capacity	67.09
513.42 K, Fluid (supercritical or subcritical phases), Mass density=671.23 kg/m3, isochoric heat capacity	65.53
513.61 K, Fluid (supercritical or subcritical phases), Mass density=671.23 kg/m3, isochoric heat capacity	65.05
513.8 K, Fluid (supercritical or subcritical phases), Mass density=671.23 kg/m3, isochoric heat capacity	65.6
516.88 K, Fluid (supercritical or subcritical phases), Mass density=671.23 kg/m3, isochoric heat capacity	63.54
517.07 K, Fluid (supercritical or subcritical phases), Mass density=671.23 kg/m3, isochoric heat capacity	63.15
517.26 K, Fluid (supercritical or subcritical phases), Mass density=671.23 kg/m3, isochoric heat capacity	63.06
517.44 K, Fluid (supercritical or subcritical phases), Mass density=671.23 kg/m3, isochoric heat capacity	63.27
517.63 K, Fluid (supercritical or subcritical phases), Mass density=671.23 kg/m3, isochoric heat capacity	62.44
517.82 K, Fluid (supercritical or subcritical phases), Mass density=671.23 kg/m3, isochoric heat capacity	63.49
519.77 K, Fluid (supercritical or subcritical phases), Mass density=649.65 kg/m3, isochoric heat capacity	68.81
519.77 K, Liquid, Isochoric heat capacity	68.81
519.87 K, Fluid (supercritical or subcritical phases), Mass density=649.65 kg/m3, isochoric heat capacity	68.23
520.05 K, Fluid (supercritical or subcritical phases), Mass density=649.65 kg/m3, isochoric heat capacity	65.99
520.14 K, Fluid (supercritical or subcritical phases), Mass density=649.65 kg/m3, isochoric heat capacity	66.91
520.24 K, Fluid (supercritical or subcritical phases), Mass density=649.65 kg/m3, isochoric heat capacity	67.27
520.33 K, Fluid (supercritical or subcritical phases), Mass density=649.65 kg/m3, isochoric heat capacity	64.87
520.42 K, Fluid (supercritical or subcritical phases), Mass density=649.65 kg/m3, isochoric heat capacity	66.63
520.52 K, Fluid (supercritical or subcritical phases), Mass density=649.65 kg/m3, isochoric heat capacity	67.09
520.79 K, Fluid (supercritical or subcritical phases), Mass density=649.65 kg/m3, isochoric heat capacity	65.87
520.98 K, Fluid (supercritical or subcritical phases), Mass density=649.65 kg/m3, isochoric heat capacity	65.39
521.17 K, Fluid (supercritical or subcritical phases), Mass density=649.65 kg/m3, isochoric heat capacity	66.9
521.35 K, Fluid (supercritical or subcritical phases), Mass density=649.65 kg/m3, isochoric heat capacity	66.72
521.45 K, Fluid (supercritical or subcritical phases), Mass density=649.65 kg/m3, isochoric heat capacity	66.06
521.54 K, Fluid (supercritical or subcritical phases), Mass density=649.65 kg/m3, isochoric heat capacity	65.81
526.45 K, Fluid (supercritical or subcritical phases), Mass density=649.65 kg/m3, isochoric heat capacity	63.84
526.64 K, Fluid (supercritical or subcritical phases), Mass density=649.65 kg/m3, isochoric heat capacity	63.74
526.82 K, Fluid (supercritical or subcritical phases), Mass density=649.65 kg/m3, isochoric heat capacity	63.43
527.01 K, Fluid (supercritical or subcritical phases), Mass density=649.65 kg/m3, isochoric heat capacity	63.65
527.19 K, Fluid (supercritical or subcritical phases), Mass density=649.65 kg/m3, isochoric heat capacity	62.83
527.28 K, Fluid (supercritical or subcritical phases), Mass density=649.65 kg/m3, isochoric heat capacity	63.36
545.62 K, Fluid (supercritical or subcritical phases), Mass density=594.32 kg/m3, isochoric heat capacity	71.3
545.62 K, Liquid, Isochoric heat capacity	71.3
545.71 K, Fluid (supercritical or subcritical phases), Mass density=594.32 kg/m3, isochoric heat capacity	69.65
545.8 K, Fluid (supercritical or subcritical phases), Mass density=594.32 kg/m3, isochoric heat capacity	69.15
546.08 K, Fluid (supercritical or subcritical phases), Mass density=594.32 kg/m3, isochoric heat capacity	68.46
546.17 K, Fluid (supercritical or subcritical phases), Mass density=594.32 kg/m3, isochoric heat capacity	67.48
546.35 K, Fluid (supercritical or subcritical phases), Mass density=594.32 kg/m3, isochoric heat capacity	68.48
546.62 K, Fluid (supercritical or subcritical phases), Mass density=594.32 kg/m3, isochoric heat capacity	67.15
546.71 K, Fluid (supercritical or subcritical phases), Mass density=594.32 kg/m3, isochoric heat capacity	66.47
547.07 K, Fluid (supercritical or subcritical phases), Mass density=594.32 kg/m3, isochoric heat capacity	65.62
547.17 K, Fluid (supercritical or subcritical phases), Mass density=594.32 kg/m3, isochoric heat capacity	66.33
547.5 K, Fluid (supercritical or subcritical phases), Mass density=594.32 kg/m3, isochoric heat capacity	65.53
547.79 K, Fluid (supercritical or subcritical phases), Mass density=594.32 kg/m3, isochoric heat capacity	65.46
547.98 K, Fluid (supercritical or subcritical phases), Mass density=594.32 kg/m3, isochoric heat capacity	63.91
549.8 K, Fluid (supercritical or subcritical phases), Mass density=594.32 kg/m3, isochoric heat capacity	63.77
549.98 K, Fluid (supercritical or subcritical phases), Mass density=594.32 kg/m3, isochoric heat capacity	62.97
550.07 K, Fluid (supercritical or subcritical phases), Mass density=594.32 kg/m3, isochoric heat capacity	63.74
550.16 K, Fluid (supercritical or subcritical phases), Mass density=594.32 kg/m3, isochoric heat capacity	63.45
550.34 K, Fluid (supercritical or subcritical phases), Mass density=594.32 kg/m3, isochoric heat capacity	63.56
561.03 K, Fluid (supercritical or subcritical phases), Mass density=552.58 kg/m3, isochoric heat capacity	73.2
561.03 K, Liquid, Isochoric heat capacity	73.2
561.19 K, Fluid (supercritical or subcritical phases), Mass density=552.58 kg/m3, isochoric heat capacity	70.73
561.25 K, Fluid (supercritical or subcritical phases), Mass density=552.58 kg/m3, isochoric heat capacity	66.7
561.34 K, Fluid (supercritical or subcritical phases), Mass density=552.58 kg/m3, isochoric heat capacity	64.8
561.52 K, Fluid (supercritical or subcritical phases), Mass density=552.58 kg/m3, isochoric heat capacity	64.06
561.61 K, Fluid (supercritical or subcritical phases), Mass density=552.58 kg/m3, isochoric heat capacity	62.44
561.7 K, Fluid (supercritical or subcritical phases), Mass density=552.58 kg/m3, isochoric heat capacity	64.39
561.88 K, Fluid (supercritical or subcritical phases), Mass density=552.58 kg/m3, isochoric heat capacity	63.24
561.97 K, Fluid (supercritical or subcritical phases), Mass density=552.58 kg/m3, isochoric heat capacity	62.79
562.06 K, Fluid (supercritical or subcritical phases), Mass density=552.58 kg/m3, isochoric heat capacity	61.43
565.36 K, Liquid, Isochoric heat capacity	73.52
580.18 K, Fluid (supercritical or subcritical phases), Mass density=476.25 kg/m3, isochoric heat capacity	77.25
580.18 K, Liquid, Isochoric heat capacity	77.25
580.21 K, Fluid (supercritical or subcritical phases), Mass density=476.25 kg/m3, isochoric heat capacity	73.61
580.3 K, Fluid (supercritical or subcritical phases), Mass density=476.25 kg/m3, isochoric heat capacity	69.74
580.56 K, Fluid (supercritical or subcritical phases), Mass density=476.25 kg/m3, isochoric heat capacity	68.42
580.74 K, Fluid (supercritical or subcritical phases), Mass density=476.25 kg/m3, isochoric heat capacity	68.46
580.92 K, Fluid (supercritical or subcritical phases), Mass density=476.25 kg/m3, isochoric heat capacity	67.84
581.01 K, Fluid (supercritical or subcritical phases), Mass density=476.25 kg/m3, isochoric heat capacity	68.48
